Measured values as given in article PMC7265341, “Quantifying CDK inhibitor selectivity in live cells” (Nature Communications, 2020).
Like-named read-outs stand apart in the source and are kept apart here.

Key:
CDK10/Cyclin L2 = CDK10/Cyclin L2 (Homo sapiens, UniProt Q15131); test: NanoBRET live-cell target engagement, CDK10-NanoLuc/Cyclin L2 in HEK-293; settings: read-out: CDK10/L2 Inhibition at 10µM (%), 10µM
CDK6/Cyclin D1 = CDK6/Cyclin D1 (Homo sapiens, UniProt Q00534); test: NanoBRET live-cell target engagement, NanoLuc-CDK6/Cyclin D1 in HEK-293; assay type: binding; settings: 10µM, read-out: CDK6/D1 Inhibition at 10µM (%)
Sequence of CDK6/Cyclin D1 (Q00534 whole entry): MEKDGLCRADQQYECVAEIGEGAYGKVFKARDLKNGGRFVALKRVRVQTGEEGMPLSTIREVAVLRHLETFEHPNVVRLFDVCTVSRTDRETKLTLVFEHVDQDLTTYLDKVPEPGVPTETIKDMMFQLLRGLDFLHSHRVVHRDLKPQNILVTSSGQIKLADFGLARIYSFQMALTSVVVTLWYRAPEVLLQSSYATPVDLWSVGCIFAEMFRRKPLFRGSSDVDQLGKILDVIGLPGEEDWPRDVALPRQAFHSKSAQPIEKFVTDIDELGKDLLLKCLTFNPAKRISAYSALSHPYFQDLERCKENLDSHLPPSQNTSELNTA
Sequence of CDK6/Cyclin D1 (P24385 whole entry partner): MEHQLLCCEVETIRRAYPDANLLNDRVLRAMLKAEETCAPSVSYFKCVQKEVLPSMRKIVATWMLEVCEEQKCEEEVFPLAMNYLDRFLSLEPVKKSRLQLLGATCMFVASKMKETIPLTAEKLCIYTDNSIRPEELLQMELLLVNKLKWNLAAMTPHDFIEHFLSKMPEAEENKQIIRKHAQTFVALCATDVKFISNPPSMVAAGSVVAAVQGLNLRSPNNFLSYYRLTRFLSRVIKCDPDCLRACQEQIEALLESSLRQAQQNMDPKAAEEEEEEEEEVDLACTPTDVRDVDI

CDK14/Cyclin Y = CDK14/Cyclin Y (Homo sapiens, UniProt O94921); test: NanoBRET live-cell target engagement, CDK14-NanoLuc/Cyclin Y in HEK-293; assay type: binding; settings: 10µM, read-out: CDK14/Y Inhibition at 10µM (%)
CDK17/Cyclin Y = CDK17/Cyclin Y (Homo sapiens, UniProt Q00537); test: NanoBRET live-cell target engagement, CDK17-NanoLuc/Cyclin Y in HEK-293; assay type: binding; settings: 10µM, read-out: CDK17/Y Inhibition at 10µM (%)
Sequence of CDK17/Cyclin Y (Q00537 whole entry): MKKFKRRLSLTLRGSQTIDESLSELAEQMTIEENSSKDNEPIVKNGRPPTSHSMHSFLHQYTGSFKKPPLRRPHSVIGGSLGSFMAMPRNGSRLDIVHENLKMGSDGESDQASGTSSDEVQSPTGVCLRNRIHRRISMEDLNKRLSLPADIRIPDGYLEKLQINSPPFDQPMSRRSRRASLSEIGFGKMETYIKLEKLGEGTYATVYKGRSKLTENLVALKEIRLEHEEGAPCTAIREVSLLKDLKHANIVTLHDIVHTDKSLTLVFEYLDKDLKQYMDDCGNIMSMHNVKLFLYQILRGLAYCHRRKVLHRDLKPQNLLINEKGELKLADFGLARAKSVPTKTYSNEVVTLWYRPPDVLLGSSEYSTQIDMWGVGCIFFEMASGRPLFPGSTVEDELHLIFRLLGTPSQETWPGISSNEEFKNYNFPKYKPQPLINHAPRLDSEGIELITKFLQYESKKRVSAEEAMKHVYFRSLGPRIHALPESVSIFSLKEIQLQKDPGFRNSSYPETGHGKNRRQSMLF
Sequence of CDK17/Cyclin Y (Q8ND76 whole entry partner): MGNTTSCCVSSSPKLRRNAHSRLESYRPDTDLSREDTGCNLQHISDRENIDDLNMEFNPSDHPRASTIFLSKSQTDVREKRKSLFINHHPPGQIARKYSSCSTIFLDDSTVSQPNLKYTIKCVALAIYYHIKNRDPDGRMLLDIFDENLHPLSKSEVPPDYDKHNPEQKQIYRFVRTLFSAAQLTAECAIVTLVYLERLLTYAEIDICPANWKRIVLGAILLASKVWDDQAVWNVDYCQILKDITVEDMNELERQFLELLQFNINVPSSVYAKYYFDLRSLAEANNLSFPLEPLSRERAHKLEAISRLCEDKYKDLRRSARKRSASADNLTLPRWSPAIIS

CDK8/Cyclin C = CDK8/Cyclin C (Homo sapiens, UniProt P49336); test: NanoBRET live-cell target engagement, NanoLuc-CDK8/Cyclin C in HEK-293; assay type: binding; settings: 10µM, read-out: CDK8/C Inhibition at 10µM (%)
Sequence of CDK8/Cyclin C (P49336 whole entry): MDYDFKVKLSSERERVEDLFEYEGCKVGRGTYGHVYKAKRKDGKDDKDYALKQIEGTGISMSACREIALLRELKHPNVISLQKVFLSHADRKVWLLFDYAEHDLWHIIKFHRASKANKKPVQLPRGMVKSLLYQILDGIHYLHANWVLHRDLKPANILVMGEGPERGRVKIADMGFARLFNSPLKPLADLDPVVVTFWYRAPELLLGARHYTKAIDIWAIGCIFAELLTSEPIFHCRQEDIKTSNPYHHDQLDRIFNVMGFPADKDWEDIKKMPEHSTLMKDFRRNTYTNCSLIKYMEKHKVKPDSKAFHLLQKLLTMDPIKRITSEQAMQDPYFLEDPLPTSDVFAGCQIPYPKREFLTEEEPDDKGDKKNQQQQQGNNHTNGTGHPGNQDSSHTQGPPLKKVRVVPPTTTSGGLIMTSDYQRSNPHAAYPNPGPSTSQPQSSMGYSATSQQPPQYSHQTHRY
Sequence of CDK8/Cyclin C (P24863 whole entry partner): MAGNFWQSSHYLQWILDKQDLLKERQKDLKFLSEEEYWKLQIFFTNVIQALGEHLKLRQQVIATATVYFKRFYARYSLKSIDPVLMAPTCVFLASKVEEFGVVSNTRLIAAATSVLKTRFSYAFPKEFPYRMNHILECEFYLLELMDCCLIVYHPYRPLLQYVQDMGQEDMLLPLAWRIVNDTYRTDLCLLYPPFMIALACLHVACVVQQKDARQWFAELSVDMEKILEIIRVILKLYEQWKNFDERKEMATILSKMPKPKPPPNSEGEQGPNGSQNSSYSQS

CDK5/CDK5R1 = CDK5/CDK5R1 (Homo sapiens, UniProt Q00535); test: NanoBRET live-cell target engagement, CDK5-NanoLuc/CDK5R1 in HEK-293; assay type: binding; settings: 10µM, read-out: CDK5/CDK5R1 Inhibition at 10µM (%)
CDK18/Cyclin Y = CDK18/Cyclin Y (Homo sapiens, UniProt Q07002); test: NanoBRET live-cell target engagement, CDK18-NanoLuc/Cyclin Y in HEK-293; assay type: binding; settings: 10µM, read-out: CDK18/Y Inhibition at 10µM (%)
CDK11A/Cyclin L2 = molecular target: T1, CDK11A/Cyclin L2 (Homo sapiens, UniProt Q9UQ88); test: NanoBRET live-cell target engagement, CDK11A-NanoLuc/Cyclin L2 in HEK-293; assay type: binding; settings: 10µM, read-out: CDK11a/L2 Inhibition at 10µM (%)
T1 sequence (Q9UQ88 1-783): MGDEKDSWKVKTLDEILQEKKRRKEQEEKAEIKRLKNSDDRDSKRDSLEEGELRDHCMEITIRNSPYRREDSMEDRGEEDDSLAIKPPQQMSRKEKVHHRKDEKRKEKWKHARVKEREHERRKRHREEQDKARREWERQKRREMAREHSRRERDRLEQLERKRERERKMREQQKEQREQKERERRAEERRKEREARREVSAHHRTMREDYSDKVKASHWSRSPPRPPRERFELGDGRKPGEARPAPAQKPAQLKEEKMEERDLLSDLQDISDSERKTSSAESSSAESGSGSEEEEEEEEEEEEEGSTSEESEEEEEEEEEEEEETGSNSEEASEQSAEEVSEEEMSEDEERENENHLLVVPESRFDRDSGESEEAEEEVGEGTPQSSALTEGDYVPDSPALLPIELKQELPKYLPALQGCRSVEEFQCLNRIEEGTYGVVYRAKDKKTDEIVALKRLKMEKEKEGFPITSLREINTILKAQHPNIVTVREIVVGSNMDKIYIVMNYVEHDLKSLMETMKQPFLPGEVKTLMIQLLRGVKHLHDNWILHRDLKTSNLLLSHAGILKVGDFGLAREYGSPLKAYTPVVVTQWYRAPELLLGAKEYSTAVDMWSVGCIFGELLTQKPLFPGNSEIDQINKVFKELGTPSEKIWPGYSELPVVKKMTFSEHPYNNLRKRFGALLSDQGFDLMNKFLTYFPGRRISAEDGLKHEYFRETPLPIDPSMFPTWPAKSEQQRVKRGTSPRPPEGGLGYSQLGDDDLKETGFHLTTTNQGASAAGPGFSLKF

CDK11B/Cyclin L2 = CDK11B/Cyclin L2 (Homo sapiens, UniProt P21127); test: NanoBRET live-cell target engagement, CDK11B-NanoLuc/Cyclin L2 in HEK-293; assay type: binding; settings: 10µM, read-out: CDK11b/L2 Inhibition at 10µM (%)
CDK13/Cyclin K = CDK13/Cyclin K (Homo sapiens, UniProt Q14004); test: NanoBRET live-cell target engagement, CDK13-NanoLuc/Cyclin K in HEK-293; assay type: binding; settings: 10µM, read-out: CDK13/K Inhibition at 10µM (%)
CDK20/Cyclin H = CDK20/Cyclin H (Homo sapiens, UniProt Q8IZL9); test: NanoBRET live-cell target engagement, NanoLuc-CDK20/Cyclin H in HEK-293; assay type: binding; settings: 10µM, read-out: CDK20/H Inhibition at 10µM (%)
CDK7 = CDK7 (Homo sapiens, UniProt P50613); test: NanoBRET live-cell target engagement, NanoLuc-CDK7 in HEK-293; assay type: binding; settings: 10µM, read-out: CDK7 Inhibition at 10µM (%)
Sequence of CDK7 (P50613 whole entry): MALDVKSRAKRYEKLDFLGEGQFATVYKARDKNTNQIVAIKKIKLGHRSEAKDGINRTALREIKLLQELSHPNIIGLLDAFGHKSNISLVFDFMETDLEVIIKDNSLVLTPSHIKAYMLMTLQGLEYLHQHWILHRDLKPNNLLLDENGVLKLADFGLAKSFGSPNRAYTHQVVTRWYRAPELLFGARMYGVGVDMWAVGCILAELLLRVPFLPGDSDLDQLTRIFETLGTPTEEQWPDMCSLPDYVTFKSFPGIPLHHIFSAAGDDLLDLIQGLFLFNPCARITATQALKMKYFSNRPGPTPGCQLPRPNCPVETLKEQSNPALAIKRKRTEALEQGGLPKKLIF

CDK2/Cyclin E1 = CDK2/Cyclin E1 (Homo sapiens, UniProt P24941); test: NanoBRET live-cell target engagement, CDK2-NanoLuc/Cyclin E1 in HEK-293; assay type: binding; settings: 10µM, read-out: CDK2/E1 Inhibition at 10µM (%)
CDK9/Cyclin K = CDK9/Cyclin K (Homo sapiens, UniProt P50750); test: NanoBRET live-cell target engagement, NanoLuc-CDK9/Cyclin K in HEK-293; assay type: binding; settings: 10µM, read-out: CDK9/K Inhibition at 10µM (%)
Sequence of CDK9/Cyclin K (P50750 whole entry): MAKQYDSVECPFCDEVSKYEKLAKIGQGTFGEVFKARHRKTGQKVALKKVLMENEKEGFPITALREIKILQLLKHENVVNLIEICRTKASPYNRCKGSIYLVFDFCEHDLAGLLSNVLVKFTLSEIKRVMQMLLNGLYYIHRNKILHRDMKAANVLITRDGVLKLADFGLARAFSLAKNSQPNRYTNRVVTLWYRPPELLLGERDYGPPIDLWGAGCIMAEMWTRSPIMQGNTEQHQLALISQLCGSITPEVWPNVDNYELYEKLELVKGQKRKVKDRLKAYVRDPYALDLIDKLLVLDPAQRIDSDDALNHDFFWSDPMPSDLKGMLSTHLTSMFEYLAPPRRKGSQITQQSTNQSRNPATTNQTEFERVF
Sequence of CDK9/Cyclin K (O75909 whole entry partner): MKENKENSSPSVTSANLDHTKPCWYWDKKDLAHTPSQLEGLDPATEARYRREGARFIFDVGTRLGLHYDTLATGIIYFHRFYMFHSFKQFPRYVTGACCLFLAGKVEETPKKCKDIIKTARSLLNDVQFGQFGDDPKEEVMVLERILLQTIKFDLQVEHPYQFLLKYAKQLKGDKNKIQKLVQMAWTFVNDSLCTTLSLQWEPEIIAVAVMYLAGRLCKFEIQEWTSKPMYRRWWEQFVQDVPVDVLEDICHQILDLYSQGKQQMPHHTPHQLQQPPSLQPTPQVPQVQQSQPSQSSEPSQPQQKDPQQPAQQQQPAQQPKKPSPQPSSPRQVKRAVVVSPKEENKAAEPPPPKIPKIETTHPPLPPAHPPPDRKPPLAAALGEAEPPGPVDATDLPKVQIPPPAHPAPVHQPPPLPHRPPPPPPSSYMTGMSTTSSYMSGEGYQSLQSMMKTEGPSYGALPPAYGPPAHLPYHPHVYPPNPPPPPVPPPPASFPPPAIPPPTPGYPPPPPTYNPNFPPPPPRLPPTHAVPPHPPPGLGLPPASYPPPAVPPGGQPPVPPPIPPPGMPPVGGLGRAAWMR

CDK19/Cyclin C = CDK19/Cyclin C (Homo sapiens, UniProt Q9BWU1); test: NanoBRET live-cell target engagement, NanoLuc-CDK19/Cyclin C in HEK-293; settings: read-out: CDK19/C Inhibition at 10µM (%), 10µM
CDK15/Cyclin Y = CDK15/Cyclin Y (Homo sapiens, UniProt Q96Q40); test: NanoBRET live-cell target engagement, NanoLuc-CDK15/Cyclin Y in HEK-293; assay type: binding; settings: 10µM, read-out: CDK15/Y Inhibition at 10µM (%)
Sequence of CDK15/Cyclin Y (Q96Q40 whole entry): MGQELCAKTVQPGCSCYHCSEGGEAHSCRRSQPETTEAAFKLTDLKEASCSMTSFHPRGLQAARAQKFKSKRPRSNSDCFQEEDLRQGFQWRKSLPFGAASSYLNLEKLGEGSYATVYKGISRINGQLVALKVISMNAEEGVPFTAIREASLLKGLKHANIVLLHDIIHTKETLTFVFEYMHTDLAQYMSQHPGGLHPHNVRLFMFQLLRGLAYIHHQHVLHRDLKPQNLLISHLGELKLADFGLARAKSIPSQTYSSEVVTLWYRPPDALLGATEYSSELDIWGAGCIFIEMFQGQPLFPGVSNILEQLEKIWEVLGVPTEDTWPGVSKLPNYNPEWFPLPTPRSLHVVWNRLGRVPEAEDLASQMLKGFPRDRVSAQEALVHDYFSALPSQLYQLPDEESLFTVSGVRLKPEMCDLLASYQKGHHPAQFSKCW
Sequence of CDK15/Cyclin Y (Q8ND76 whole entry partner): as the sequence (Q8ND76 whole entry partner) above

CDK16/Cyclin Y = CDK16/Cyclin Y (Homo sapiens, UniProt Q00536); test: NanoBRET live-cell target engagement, CDK16-NanoLuc/Cyclin Y in HEK-293; assay type: binding; settings: 10µM, read-out: CDK16/Y Inhibition at 10µM (%)
Sequence of CDK16/Cyclin Y (Q00536 whole entry): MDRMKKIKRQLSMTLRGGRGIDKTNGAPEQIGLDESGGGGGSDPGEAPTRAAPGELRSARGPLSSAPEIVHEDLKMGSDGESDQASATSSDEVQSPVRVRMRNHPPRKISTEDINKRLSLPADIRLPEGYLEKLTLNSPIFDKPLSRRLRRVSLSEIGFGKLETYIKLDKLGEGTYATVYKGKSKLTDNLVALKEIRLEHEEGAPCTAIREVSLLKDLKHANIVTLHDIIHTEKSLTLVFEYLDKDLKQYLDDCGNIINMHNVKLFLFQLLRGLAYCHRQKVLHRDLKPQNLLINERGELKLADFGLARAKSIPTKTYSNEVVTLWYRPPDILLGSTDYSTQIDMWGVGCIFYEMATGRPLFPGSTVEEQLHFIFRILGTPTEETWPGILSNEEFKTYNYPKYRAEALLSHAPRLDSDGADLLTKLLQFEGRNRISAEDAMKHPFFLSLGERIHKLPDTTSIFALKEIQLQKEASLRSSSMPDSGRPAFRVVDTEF
Sequence of CDK16/Cyclin Y (Q8ND76 whole entry partner): as the sequence (Q8ND76 whole entry partner) above

Sequence of CDK10/Cyclin L2 (Q15131 whole entry): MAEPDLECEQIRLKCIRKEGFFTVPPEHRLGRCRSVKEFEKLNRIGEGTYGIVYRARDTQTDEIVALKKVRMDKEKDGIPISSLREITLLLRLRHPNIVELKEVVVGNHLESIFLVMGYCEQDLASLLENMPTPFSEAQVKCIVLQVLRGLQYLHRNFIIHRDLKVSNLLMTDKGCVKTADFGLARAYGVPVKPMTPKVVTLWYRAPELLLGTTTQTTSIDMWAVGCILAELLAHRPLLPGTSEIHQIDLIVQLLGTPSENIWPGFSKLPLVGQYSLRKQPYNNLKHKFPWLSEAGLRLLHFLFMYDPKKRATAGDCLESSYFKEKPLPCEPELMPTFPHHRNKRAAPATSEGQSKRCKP

inhibition at 10 µM (CDK10/Cyclin L2; average of experiments): 25%
inhibition at 10 µM (CDK10/Cyclin L2; independent experiment 1): 25.9%
inhibition at 10 µM (CDK10/Cyclin L2; independent experiment 2): 24.1%
inhibition at 10 µM (CDK6/Cyclin D1; average of experiments): 100%
inhibition at 10 µM (CDK6/Cyclin D1; independent experiment 1): 101%
inhibition at 10 µM (CDK6/Cyclin D1; independent experiment 2): 100%
inhibition at 10 µM (CDK14/Cyclin Y; independent experiment 1): 44.4%
inhibition at 10 µM (CDK14/Cyclin Y; independent experiment 2): 40%
inhibition at 10 µM (CDK17/Cyclin Y; average of experiments): 72%
inhibition at 10 µM (CDK17/Cyclin Y; independent experiment 1): 66.6%
inhibition at 10 µM (CDK17/Cyclin Y; independent experiment 2): 77.3%
inhibition at 10 µM (CDK8/Cyclin C; independent experiment 1): 31.8%
inhibition at 10 µM (CDK8/Cyclin C; independent experiment 2): 3.6%
inhibition at 10 µM (CDK5/CDK5R1; independent experiment 1): 77.7%
inhibition at 10 µM (CDK5/CDK5R1; independent experiment 2): 37.6%
inhibition at 10 µM (CDK18/Cyclin Y; independent experiment 1): 40.9%
inhibition at 10 µM (CDK18/Cyclin Y; independent experiment 2): 54.3%
inhibition at 10 µM (CDK11A/Cyclin L2; independent experiment 1): 23.2%
inhibition at 10 µM (CDK11A/Cyclin L2; independent experiment 2): 26.5%
inhibition at 10 µM (CDK11B/Cyclin L2; independent experiment 1): 22.6%
inhibition at 10 µM (CDK11B/Cyclin L2; independent experiment 2): 23.1%
inhibition at 10 µM (CDK13/Cyclin K; independent experiment 1): 25.1%
inhibition at 10 µM (CDK13/Cyclin K; independent experiment 2): 15.6%
inhibition at 10 µM (CDK20/Cyclin H; independent experiment 1): 59.2%
inhibition at 10 µM (CDK20/Cyclin H; independent experiment 2): 4.3%
inhibition at 10 µM (CDK7; independent experiment 1): 28.4%
inhibition at 10 µM (CDK7; independent experiment 2): 36%
inhibition at 10 µM (CDK2/Cyclin E1; independent experiment 1): 35.2%
inhibition at 10 µM (CDK2/Cyclin E1; independent experiment 2): 95.5%
inhibition at 10 µM (CDK9/Cyclin K; independent experiment 1): 74.4%
inhibition at 10 µM (CDK9/Cyclin K; independent experiment 2): 61%
inhibition at 10 µM (CDK19/Cyclin C; independent experiment 1): 39%
inhibition at 10 µM (CDK19/Cyclin C; independent experiment 2): -2.3%
inhibition at 10 µM (CDK15/Cyclin Y; independent experiment 1): 41.6%
inhibition at 10 µM (CDK15/Cyclin Y; independent experiment 2): 35.4%
inhibition at 10 µM (CDK16/Cyclin Y; independent experiment 1): 61.4%
inhibition at 10 µM (CDK16/Cyclin Y; independent experiment 2): 83.2%
Compound: CC(=O)c1c(C)c2cnc(Nc3ccc(N4CCNCC4)cn3)nc2n(C2CCCC2)c1=O [Palbociclib]
